Source: ChEMBL document CHEMBL5352410, “Discovery of novel selenium-containing azole derivatives as antifungal agents by exploiting the hydrophobic cleft of CYP51” (Eur J Med Chem, 2022)
Values after ≈ are worked out from the molar mass of the structure shown.

Tests used:
Assay type in all cases: functional
[1] = test system: Candida albicans; test: Antifungal activity against FCZ-resistant Candida albicans 632 by CLSI based broth microdilution method
[2] = test system: Candida albicans; test: Antifungal activity against FCZ-resistant Candida albicans 901 by CLSI based broth microdilution method
[3] = test system: Candida parapsilosis; test: Antifungal activity against Candida parapsilosis by CLSI based broth microdilution method; conditions: Lodderomyces parapsilosis
[4] = test system: [Candida] zeylanoides; test: Antifungal activity against Candida zeylanoides by CLSI based broth microdilution method; conditions: Dujonia zeylanoides
[5] = test system: Candida albicans; test: Antifungal activity against FCZ-resistant Candida albicans CaR by CLSI based broth microdilution method
[6] = test system: Pichia kudriavzevii; test: Antifungal activity against Pichia kudriavzevii by CLSI based broth microdilution method
[7] = test system: Candida albicans; test: Antifungal activity against FCZ-resistant Candida albicans 904 by CLSI based broth microdilution method
[8] = test system: Candida albicans; test: Antifungal activity against Candida albicans sc5314 by CLSI based broth microdilution method
[9] = test system: Candida albicans; test: Antifungal activity against Candida albicans by CLSI based broth microdilution method
[10] = test system: Cryptococcus neoformans; test: Antifungal activity against Cryptococcus neoformans by CLSI based broth microdilution method
[11] = test system: Aspergillus fumigatus; test: Antifungal activity against Aspergillus fumigatus by CLSI based broth microdilution method
[12] = test system: Candida albicans; test: Antifungal activity against FCZ-resistant Candida albicans 17# by CLSI based broth microdilution method
[13] = test system: Nakaseomyces glabratus; test: Antifungal activity against Candida glabrata by CLSI based broth microdilution method

| SMILES | MIC [1] | MIC [2] | MIC [3] | MIC [4] | MIC [5] | MIC [6] | MIC [7] | MIC [8] | MIC [9] | MIC [10] | MIC [11] | MIC [12] | MIC [13] |
| --- | --- | --- | --- | --- | --- | --- | --- | --- | --- | --- | --- | --- | --- |
| Fc1ccc(C(Cn2cnnn2)[Se]C(Cn2cnnn2)c2ccc(F)cc2F)c(F)c1 (stereo not given) | > 64 µg/mL | > 64 µg/mL | > 64 µg/mL | > 64 µg/mL | > 64 µg/mL | > 64 µg/mL | > 64 µg/mL | > 64 µg/mL | > 64 µg/mL | > 64 µg/mL | > 64 µg/mL | > 64 µg/mL | > 64 µg/mL |
| Clc1ccc(C(Cn2cncn2)[Se][Se]C(Cn2cncn2)c2ccc(Cl)cc2Cl)c(Cl)c1 (stereo not given) | > 64 µg/mL | > 64 µg/mL |  |  | 8 µg/mL (≈ 12.5 µM) |  | > 64 µg/mL |  |  |  |  | 16 µg/mL (≈ 25 µM) |  |
| Fc1ccc(C(Cn2cncn2)[Se]C(Cn2cncn2)c2ccc(F)cc2)cc1 (stereo not given) | > 64 µg/mL | > 64 µg/mL | > 64 µg/mL | 1 µg/mL (≈ 2.18 µM) | 64 µg/mL (≈ 139 µM) | > 64 µg/mL | 64 µg/mL (≈ 139 µM) | 32 µg/mL (≈ 69.7 µM) | > 64 µg/mL | > 64 µg/mL | > 64 µg/mL | 8 µg/mL (≈ 17.4 µM) | 64 µg/mL (≈ 139 µM) |
| Clc1ccc(C(Cn2cncn2)[Se][Se]C(Cn2cncn2)c2ccc(Cl)cc2)cc1 (stereo not given) | > 64 µg/mL | 16 µg/mL (≈ 28 µM) |  |  | 4 µg/mL (≈ 7 µM) |  | 16 µg/mL (≈ 28 µM) |  |  |  |  | 64 µg/mL (≈ 112 µM) |  |
| Clc1ccc(C(Cn2cnnn2)[Se]C(Cn2cnnn2)c2ccc(Cl)cc2Cl)c(Cl)c1 (stereo not given) | > 64 µg/mL | > 64 µg/mL | > 64 µg/mL | > 64 µg/mL | > 64 µg/mL | > 64 µg/mL | > 64 µg/mL | > 64 µg/mL | > 64 µg/mL | > 64 µg/mL | > 64 µg/mL | > 64 µg/mL | > 64 µg/mL |
| Fc1ccc(C(Cn2cncn2)[Se]C(Cn2cncn2)c2ccc(F)cc2F)c(F)c1 (stereo not given) | 32 µg/mL (≈ 64.6 µM) | 16 µg/mL (≈ 32.3 µM) | > 64 µg/mL | 8 µg/mL (≈ 16.2 µM) | 32 µg/mL (≈ 64.6 µM) | > 64 µg/mL | 16 µg/mL (≈ 32.3 µM) | 4 µg/mL (≈ 8.08 µM) | 64 µg/mL (≈ 129 µM) | 4 µg/mL (≈ 8.08 µM) | > 64 µg/mL | 8 µg/mL (≈ 16.2 µM) | > 64 µg/mL |
| Fc1ccc(C(Cn2ccnn2)[Se]C(Cn2ccnn2)c2ccc(F)cc2)cc1 (stereo not given) | > 64 µg/mL | > 64 µg/mL | > 64 µg/mL | 64 µg/mL (≈ 139 µM) | > 64 µg/mL | 64 µg/mL (≈ 139 µM) | > 64 µg/mL | > 64 µg/mL | > 64 µg/mL | > 64 µg/mL | > 64 µg/mL | > 64 µg/mL | 8 µg/mL (≈ 17.4 µM) |
| Fc1ccc(C(Cn2cncn2)[Se][Se]C(Cn2cncn2)c2ccc(F)cc2F)c(F)c1 (stereo not given) | > 64 µg/mL | 16 µg/mL (≈ 27.9 µM) |  |  | 16 µg/mL (≈ 27.9 µM) |  | 64 µg/mL (≈ 111 µM) |  |  |  |  | 8 µg/mL (≈ 13.9 µM) |  |
| Fc1ccc(C(Cn2ccnn2)[Se]C(Cn2ccnn2)c2ccc(F)cc2F)c(F)c1 (stereo not given) | > 64 µg/mL | > 64 µg/mL | > 64 µg/mL | 1 µg/mL (≈ 2.02 µM) | 64 µg/mL (≈ 129 µM) | > 64 µg/mL | > 64 µg/mL | > 64 µg/mL | > 64 µg/mL | 32 µg/mL (≈ 64.6 µM) | > 64 µg/mL | 4 µg/mL (≈ 8.08 µM) | 64 µg/mL (≈ 129 µM) |
| Clc1ccc(C(Cn2ccnn2)[Se][Se]C(Cn2ccnn2)c2ccc(Cl)cc2Cl)c(Cl)c1 (stereo not given) | > 64 µg/mL | > 64 µg/mL |  |  | 4 µg/mL (≈ 6.25 µM) |  | > 64 µg/mL |  |  |  |  | 64 µg/mL (≈ 100 µM) |  |
| Clc1ccc(C(Cn2ccnn2)[Se]C(Cn2ccnn2)c2ccc(Cl)cc2Cl)c(Cl)c1 (stereo not given) | > 64 µg/mL | > 64 µg/mL | > 64 µg/mL | 32 µg/mL (≈ 57 µM) | 128 µg/mL (≈ 228 µM) | > 64 µg/mL | > 64 µg/mL | > 64 µg/mL | > 64 µg/mL | 64 µg/mL (≈ 114 µM) | > 64 µg/mL | 4 µg/mL (≈ 7.13 µM) | 64 µg/mL (≈ 114 µM) |
| Clc1ccc(C(Cn2cncn2)[Se]C(Cn2cncn2)c2ccc(Cl)cc2Cl)c(Cl)c1 (stereo not given) | 64 µg/mL (≈ 114 µM) | > 64 µg/mL | 64 µg/mL (≈ 114 µM) | 0.5 µg/mL (≈ 0.891 µM) | 32 µg/mL (≈ 57 µM) | 64 µg/mL (≈ 114 µM) | > 64 µg/mL | 32 µg/mL (≈ 57 µM) | 64 µg/mL (≈ 114 µM) | 4 µg/mL (≈ 7.13 µM) | > 64 µg/mL | 8 µg/mL (≈ 14.3 µM) | 32 µg/mL (≈ 57 µM) |
| Fc1ccc(C(Cn2ccnn2)[Se][Se]C(Cn2ccnn2)c2ccc(F)cc2F)c(F)c1 (stereo not given) | > 64 µg/mL | > 64 µg/mL |  |  | 4 µg/mL (≈ 6.96 µM) |  | > 64 µg/mL |  |  |  |  | 16 µg/mL (≈ 27.9 µM) |  |
| Fc1ccc(C(Cn2cnnn2)[Se][Se]C(Cn2cnnn2)c2ccc(F)cc2)cc1 (stereo not given) | > 64 µg/mL | > 64 µg/mL |  |  | 16 µg/mL (≈ 29.6 µM) |  | > 64 µg/mL |  |  |  |  | 32 µg/mL (≈ 59.2 µM) |  |
| Clc1ccc(C(Cn2cnnn2)[Se][Se]C(Cn2cnnn2)c2ccc(Cl)cc2Cl)c(Cl)c1 (stereo not given) | > 64 µg/mL | > 64 µg/mL |  |  | 64 µg/mL (≈ 99.7 µM) |  | > 64 µg/mL |  |  |  |  | 64 µg/mL (≈ 99.7 µM) |  |
| Clc1ccc(C(Cn2cncn2)[Se]C(Cn2cncn2)c2ccc(Cl)cc2)cc1 (stereo not given) | > 64 µg/mL | 16 µg/mL (≈ 32.5 µM) | > 64 µg/mL | 16 µg/mL (≈ 32.5 µM) | 32 µg/mL (≈ 65 µM) | > 64 µg/mL | 64 µg/mL (≈ 130 µM) | 32 µg/mL (≈ 65 µM) | > 64 µg/mL | 4 µg/mL (≈ 8.13 µM) | > 64 µg/mL | 8 µg/mL (≈ 16.3 µM) | > 64 µg/mL |
| Clc1ccc(C(Cn2cnnn2)[Se][Se]C(Cn2cnnn2)c2ccc(Cl)cc2)cc1 (stereo not given) | > 64 µg/mL | > 64 µg/mL |  |  | > 64 µg/mL |  | > 64 µg/mL |  |  |  |  | > 64 µg/mL |  |
| Fc1ccc(C(Cn2ccnn2)[Se][Se]C(Cn2ccnn2)c2ccc(F)cc2)cc1 (stereo not given) | > 64 µg/mL | > 64 µg/mL |  |  | 32 µg/mL (≈ 59.4 µM) |  | > 64 µg/mL |  |  |  |  | > 64 µg/mL |  |
| CCC(C)n1ncn(-c2ccc(N3CCN(c4ccc(OCC5COC(Cn6cncn6)(c6ccc(Cl)cc6Cl)O5)cc4)CC3)cc2)c1=O (stereo not given) [ITRACONAZOLE] | > 64 µg/mL | > 64 µg/mL |  |  | 8 µg/mL (≈ 11.3 µM) |  | > 64 µg/mL |  |  |  |  | > 64 µg/mL |  |
| Fc1ccc(C(Cn2cnnn2)[Se][Se]C(Cn2cnnn2)c2ccc(F)cc2F)c(F)c1 (stereo not given) | > 64 µg/mL | > 64 µg/mL |  |  | > 64 µg/mL |  | > 64 µg/mL |  |  |  |  | 64 µg/mL (≈ 111 µM) |  |
| Clc1ccc(C(Cn2cnnn2)[Se]C(Cn2cnnn2)c2ccc(Cl)cc2)cc1 (stereo not given) | > 64 µg/mL | > 64 µg/mL | > 64 µg/mL | > 64 µg/mL | > 64 µg/mL | > 64 µg/mL | > 64 µg/mL | > 64 µg/mL | > 64 µg/mL | > 64 µg/mL | > 64 µg/mL | > 64 µg/mL | > 64 µg/mL |
| Fc1ccc(C(Cn2cncn2)[Se][Se]C(Cn2cncn2)c2ccc(F)cc2)cc1 (stereo not given) | 64 µg/mL (≈ 119 µM) | 16 µg/mL (≈ 29.7 µM) |  |  | 4 µg/mL (≈ 7.43 µM) |  | 16 µg/mL (≈ 29.7 µM) |  |  |  |  | 16 µg/mL (≈ 29.7 µM) |  |
| Clc1ccc(C(Cn2ccnn2)[Se][Se]C(Cn2ccnn2)c2ccc(Cl)cc2)cc1 (stereo not given) | > 64 µg/mL | > 64 µg/mL |  |  | > 64 µg/mL |  | > 64 µg/mL |  |  |  |  | > 64 µg/mL |  |
